Laboratory results from patent publication US10226453B2, “3-(1H-indol-2-yl)-1H-pyrazolo[4,3-B]pyridines and therapeutic uses thereof” (Samumed, LLC, priority 2015, dated 2019).

Legend:
Assay type in all cases: cell-based
[1] = test system: SW480 colon cancer cells; experiment: Cell viability assay (CellTiter-Blue), SW480 colon cancer cells; details: Homo sapiens, 96 h, four days, CellTiter-Blue
Method: Representative compounds were screened using the following assay procedure to assess the effect on cell viability as described below.
Each compound was dissolved in DMSO as a 10 mM stock and used to prepare compound source plates. Serial dilution (1:3, 8-point dose-response curves from 10 μM to 0.0045 μM) and compound transfer was performed using the ECHO 550 (Labcyte, Sunnyvale, Calif.) into 96-well clear bottom, black-walled plates (Corning—Costar).
Approximately 2×10^3 SW480 colon cancer cells were seeded into each well and allowed to incubate in the presence or absence of compound for four days at 37° C./5% CO2. Eight replicates of DMSO-treated cells served as controls and cells treated with compound were performed in duplicate.
After incubation, 20 μL of CellTiter-Blue (Promega) was added to each well allowed to incubate for approximately 3 hours. This reagent was a buffered solution which contains resazurin, metabolically active cells were able to reduce rezarurin (blue) into resorufin (pink) which was highly fluorescent. This measured fluorescence was used as a readout for cell viability.
After incubation, the plates were read at Ex 560 nm Em 590 nm (Cytation 3, BioTek). Dose-response curves were generated and EC50 concentration values were calculated using non-linear regression curve fit in the GraphPad Prism (San Diego, Calif.) or Dotmatics' Studies Software (Bishops Stortford, UK). For EC50 of >10 μM, the percent inhibition at 10 μM is provided.

[2] = test system: Wnt activity (Sp5-Luc reporter, SW480 colon carcinoma cells); experiment: Wnt activity screening assay: Sp5-Luc reporter gene in SW480 colon carcinoma cells; details: Homo sapiens, overnight incubation, 10-point curve from 10 μM
From the text: The screening assay for Wnt activity is described as follows. Reporter cell lines can be generated by stably transducing cancer cell lines (e.g., colon cancer) or primary cells (e.g., IEC-6 intestinal cells) with a lentiviral construct that includes a Wnt-responsive promoter driving expression of the firefly luciferase gene.
SW480 colon carcinoma cells were transduced with a lentiviral vector expressing luciferase with a human Sp5 promoter consisting of a sequence of eight TCF/LEF binding sites. SW480 cells stably expressing the Sp5-Luc reporter gene and a hygromycin resistance gene were selected by treatment with 150 μg/mL of hygromycin for 7 days. These stably transduced SW480 cells were expanded in cell culture and used for all further screening activities. Each compound was dissolved in DMSO as a 10 mM stock and used to prepare compound source plates. Serial dilution (1:3, 10-point dose-response curves starting from 10 μM) and compound transfer was performed using the ECHO 550 (Labcyte, Sunnyvale, Calif.) into 384-well white solid bottom assay plates (Greiner Bio-One) with appropriate DMSO backfill for a final DMSO concentration of 0.1%. For Sp5-Luc reporter gene assays, the cells were plated at 4,000 cells/well in 384-well plates with medium containing 1% fetal bovine serum and incubated overnight at 37° C. and 5% CO2. Following incubation, 20 μl of BrightGlo luminescence reagent (Promega) was added to each well of the 384-well assay plates. The plates were placed on an orbital shaker for 2 min and then luminescence was quantified using the Envision (Perkin Elmer) plate reader. Readings were normalized to DMSO only treated cells, and normalized activities were utilized for EC50 calculations using the dose-response log (inhibitor) vs. response-variable slope (four parameters) nonlinear regression feature available in GraphPad Prism 5.0 (or Dotmatics). For EC50 of >10 μM, the percent inhibition at 10 μM is provided.

[3] = test system: IL-6 (THP-1 cells); experiment: IL-6 inhibition in LPS-stimulated THP-1 human monocyte cells (HTRF); details: LPS 500 ng/mL, 22 hours, IL6 HTRF
Method: Human monocyte cell line (THP-1 cells; Catalog # TIB-202, ATCC, Manassas, Va.) were cultured in Roswell Park Memorial Institute (RPMI) 1640 Medium (Catalog #21870-100, Buffalo, N.Y.) with 1% L-glutamine, 1% HEPES, 1% Sodium Pyruvate, 2% Sodium Bicarbonate supplemented with 100 units/mL penicillin, 50 μg/mL streptomycin, 2-mercaptoethanol (0.05 mM) [basal medium] and 10% fetal bovine serum (Catalog #16140089, Life Technologies, Carlsbad, Calif.) at 37° C. and 5% CO2.
THP-1 cells were cultured in basal media with 1% FBS for 24 hours before the start of the assay. Each compound was dissolved in DMSO as a 10 mM stock and used to prepare compound source plates. Serial dilution (1:3, 10-point dose-response curves starting from 10 μM) and compound transfer was performed using the ECHO 550 (Labcyte, Sunnyvale, Calif.) into 384-well white low volume assay plates (Greiner Bio-One) with appropriate DMSO backfill for a final DMSO concentration of 0.1%. THP-1 cells were plated at 5000 cells/well in the 384-well plates and incubated at 37° C. for 2 h. 500 ng/mL of LPS was added after 2 hours and cells were incubated for another 22 hours at 37° C. Plates were spun in a centrifuge for 1 minute at […] and a mixture of anti-IL6 XL665, and anti-IL6 Cryptate diluted in reconstitution buffer (Cisbio Inc.) was added to each well. Following incubation for 3 hrs at room temperature, Homogeneous Time-Resolved Fluorescence (HTRF) was measured using the Envision (Perkin Elmer) at 665 nm and […]. The ratio of fluorescence at 665 nm to 620 nm was used as a readout for IL6 quantification. All samples were processed in duplicate. Readings were normalized to DMSO treated cells and normalized activities were utilized for EC50 calculations using the dose-response log (inhibitor) vs. response-variable slope (four parameters) nonlinear regression feature available in GraphPad Prism 5.0 (or Dotmatics). For EC50 of >10 μM, the percent inhibition at 10 μM is provided.

[4] = test system: primary human fibroblasts derived from IPF patients (LL29 cells) treated with TGF-β1; experiment: Inhibition of the fibrotic process: αSMA staining in TGF-β1 treated primary human fibroblasts from IPF patients (LL29 cells); details: Fibroblast, 96 h, TGF-β1 20 ng/mL, 4 days, % αSMA positive cells
From the text: Representative compounds were screened using primary human fibroblasts (derived from IPF patients) treated with TGF-β1 to determine their ability to inhibit the fibrotic process.
Primary human fibroblasts derived from IPF patients (LL29 cells) [^1Xiaoqiu Liu, et. al., “Fibrotic Lung Fibroblasts Show Blunted Inhibition by cAMP Due to Deficient cAMP Response Element-Binding Protein Phosphorylation”, Journal of Pharmacology and Experimental Therapeutics (2005), 315(2), 678-687; ^2Watts, K. L., et. al., “RhoA signaling modulates cyclin D1 expression in human lung fibroblasts; implications for idiopathic pulmonary fibrosis”, Respiratory Research (2006), 7(1), 88] were obtained from American Type Culture Collection (ATCC) and expanded in F12 medium supplemented with 15% Fetal Bovine Serum and Penicillin/Streptomycin.
Each compound was dissolved in DMSO as a 10 mM stock and used to prepare compound source plates. Serial dilution (1:2, 11-point dose-response curves from 10 μM to 1.87 nM) and compound transfer was performed using the ECHO 550 (Labcyte, Sunnyvale, Calif.) into 384-well clear bottom assay plates (Greiner Bio-One) with appropriate DMSO backfill for a final DMSO concentration of 0.1%. LL29 cells are plated at 1,500 cells/well in 80 μL/well F12 medium supplemented with 1% Fetal Bovine Serum. One hour after addition of the cells, TGF-β1 (Peprotech; 20 ng/mL) was added to the plates to induce fibrosis (ref. 1 and 2 above). Wells treated with TGF-β1 and containing DMSO were used as controls. Cells were incubated at 37° C. and 5% CO2 for 4 days. Following incubation for 4 days, SYTOX green nucleic acid stain (Life Technologies [Thermo Fisher Scientific]) was added to the wells at a final concentration of 1 μM and incubated at room temperature for 30 min. Cells were then fixed using 4% formaldehyde (Electron Microscopy Sciences), washed 3 times with PBS followed by blocking and permeabilization using 3% Bovine Serum Albumin (BSA; Sigma) and 0.3% Triton X-100 (Sigma) in PBS. Cells were then stained with antibody specific to α-smooth muscle actin (αSMA; Abcam) (ref. 1 and 2 above) in 3% Bovine Serum Albumin (BSA; Sigma) and 0.3% Triton X-100 (Sigma) in PBS, and incubated overnight at 4° C. Cells were then washed 3 times with PBS, followed by incubation with Alexa Flor-647 conjugated secondary antibody (Life Technologies [Thermo Fisher Scientific]) and DAPI at room temperature for 1 hour. Cells were then washed 3 times with PBS and plates were sealed for imaging. αSMA staining was imaged by excitation at 630 nm and emission at 665 nm and quantified using the Compartmental Analysis program on the CellInsight CX5 (Thermo Scientific). Dead or apoptotic cells were excluded from analysis based on positive SYTOX green staining. % of total cells positive for αSMA were counted in each well and normalized to the average of 11 wells treated with TGF-β1 on the same plate using Dotmatics' Studies Software. The normalized averages (fold change over untreated) of 3 replicate wells for each compound concentration were used to create dose-responses curves and EC50 values were calculated using non-linear regression curve fit in the Dotmatics' Studies Software. For EC50 of >10 μM, the percent inhibition at 10 μM is provided.

Row | SMILES | EC50 [1] [nM] | EC50 [2] [nM] | EC50 [3] [nM] | EC50 [4] [nM]
1 | O=C(Nc1cncc(-c2ccc3[nH]nc(-c4cc5c(-c6cccc(F)c6)cccc5[nH]4)c3n2)c1)C1CCCCC1 [Compound 23, N-(5-(3-(4-(3-Fluorophenyl)-1H-indol-2-yl)-1H-pyrazolo[4,3-b]pyridin-5-yl)pyridin-3-yl)cyclohexanecarboxamide] | 6570 | 1630 | 1010 | 1280
2 | Fc1cccc(-c2cccc3[nH]c(-c4n[nH]c5ccc(-c6cccnc6)nc45)cc23)c1 [Compound 4, 3-(4-(3-Fluorophenyl)-1H-indol-2-yl)-5-(pyridin-3-yl)-1H-pyrazolo[4,3-b] pyridine] | 9660 | 209 | 439 | 974
3 | CN(C)Cc1cncc(-c2ccc3[nH]nc(-c4cc5c(N6CCCCC6)cccc5[nH]4)c3n2)c1 [Compound 181, N,N-Dimethyl-1-(5-(3-(4-(piperidin-1-yl)-1H-indol-2-yl)-1H-pyrazolo[4,3-b]pyridin-5-yl)pyridin-3-yl)methanamine] | 3150 | 899 | 1520 | 870
4 | CC(C)CC(=O)Nc1cncc(-c2ccc3[nH]nc(-c4cc5c(-c6ccccc6F)cccc5[nH]4)c3n2)c1 [Compound 58, N-(5-(3-(4-(2-Fluorophenyl)-1H-indol-2-yl)-1H-pyrazolo[4,3-b]pyridin-5-yl)pyridin-3-yl)-3-methylbutanamide] | 1210 | 254 | 72 | 628
5 | CS(=O)(=O)NCc1cc(F)cc(-c2cccc3[nH]c(-c4n[nH]c5ccc(C6CCNCC6)nc45)cc23)c1 [Compound 789, N-(3-Fluoro-5-(2-(5-(piperidin-4-yl)-1H-pyrazolo[4,3-b]pyridin-3-yl)-1H-indol-4-yl)benzyl)methanesulfonamide] | 5180 | 2950 | 2250 | 9630
6 | CN(C)Cc1cncc(-c2ccc3[nH]nc(-c4cc5c(-c6cccs6)cccc5[nH]4)c3n2)c1 [Compound 349, N,N-Dimethyl-1-(5-(3-(4-(thiophen-2-yl)-1H-indol-2-yl)-1H-pyrazolo[4,3-b]pyridin-5-yl)pyridin-3-yl)methanamine] | 2840 | 8280 | 137 | 1270

Now those with a lower EC50 [1], led by results:

Row | EC50 [1] [nM] | EC50 [2] [nM] | EC50 [3] [nM] | SMILES | EC50 [4] [nM]
7 | 1060 | 292 | 261 | CC(C)(C)CC(=O)Nc1cncc(-c2ccc3[nH]nc(-c4cc5c(-c6cc(F)cc(CNS(C)(=O)=O)c6)cccc5[nH]4)c3n2)c1 [Compound 492, N-(5-(3-(4-(3-Fluoro-5-(methylsulfonamidomethyl)phenyl)-1H-indol-2-yl)-1H-pyrazolo[4,3-b]pyridin-5-yl)pyridin-3-yl)-3,3-dimethylbutanamide] | 345
8 | 970 | 1030 | 1460 | CN(C)CCNc1cc(F)cc(-c2cccc3[nH]c(-c4n[nH]c5ccc(-c6cncc(NC(=O)Cc7ccccc7)c6)nc45)cc23)c1 [Compound 458, N-(5-(3-(4-(3-((2-(Dimethylamino)ethyl)amino)-5-fluorophenyl)-1H-indol-2-yl)-1H-pyrazolo[4,3-b]pyridin-5-yl)pyridin-3-yl)-2-phenylacetamide] | 1860
9 | 693 | 196 | 298 | CS(=O)(=O)NCc1cc(F)cc(-c2cccc3[nH]c(-c4n[nH]c5ccc(-c6cncc(CN7CCC(F)(F)C7)c6)nc45)cc23)c1 [Compound 502, N-(3-(2-(5-(5-((3,3-Difluoropyrrolidin-1-yl)methyl)pyridin-3-yl)-1H-pyrazolo[4,3-b]pyridin-3-yl)-1H-indol-4-yl)-5-fluorobenzyl)methanesulfonamide] | 148
10 | 145 | 61 | 37 | CC(C)Nc1cncc(-c2ccc3[nH]nc(-c4cc5ncccc5[nH]4)c3n2)c1 [Compound 516, 5-(3-(1H-Pyrrolo[3,2-b]pyridin-2-yl)-1H-pyrazolo[4,3-b]pyridin-5-yl)-N-isopropylpyridin-3-amine] | 1970
